Source: patent US12286632B2, “Rationally-designed synthetic peptide shuttle agents for delivering polypeptide cargos from an extracellular space to the cytosol and/or nucleus of a target eukaryotic cell, uses thereof, methods and kits relating to same” (Feldan Bio Inc., priority 2016, dated 2025)

Assays:
Myoblasts = experiment: GFP-NLS transduction in different adherent and suspension cells (flow cytometry, Pos cells % and viability %); assay type: cell-based, Human; details: Protocol B, 35 μM shuttle, 5 μM GFP-NLS, 10 seconds
Protocol: (§1) The media in wells was removed, cells were washed once with PBS previously warmed at 37° C., and the shuttle agent/cargo mixture was then added to cover all cells for the desired length of time. The shuttle agent/cargo mixture in wells was removed, the cells were washed once with PBS, and fresh complete medium was added. Before analysis, the cells were washed once with PBS and fresh complete medium was added.
(§2) The ability of the shuttle agent His-CM18-PTD4 to deliver GFP-NLS to the nuclei of different adherent and suspension cells using Protocols B (adherent cells) or C (suspension cells) as described in Example 9.1 was examined. The cell lines tested included: HeLa, Balb3T3, HEK 293T, CHO, NIH3T3, Myoblasts, Jurkat, THP-1, CA46, and HT2 cells, which were cultured as described in Example 1. GFP-NLS (5 μM; see Example 5.1) was co-incubated with 35 μM of His-CM18-PTD4 and exposed to adherent cells for 10 seconds (Protocol B), or was co-incubated with 5 μM of His-CM18-PTD4 and exposed to suspension cells for 15 seconds (Protocol C). […] “Pos cells (%)” is the mean percentages of all cells that emanate a GFP signal.

HEK 293T cells = experiment: as above; assay type: cell-based, Human; details: Protocol B, 35 μM shuttle, 5 μM GFP-NLS, 10 seconds
Protocol: as §1, §2

HeLa cells [1] = experiment: GFP-NLS protein transduction assay (flow cytometry: Pos cells %, viability %, relative fluorescence intensity; microscopy); details: for Relative fluorescence intensity (FL1-A) (n = 3): Table 10.3, Protocol C
in vitro = details: human, HeLa cells
THP-1 cells = experiment: GFP-NLS protein transduction assay (flow cytometry: Pos cells %, viability %, relative fluorescence intensity; microscopy)
Protocol: One day before the transduction assay was performed, cells in exponential growth phase were harvested and plated in a 96-well plate (20,000 cells per well). The cells were incubated overnight in appropriate growth media containing FBS (see Example 1). The next day, in separate sterile 1.5 mL tubes, cargo protein at the indicated concentration was pre-mixed (pre-incubated) for 1 or 10 min (depending on the protocol) at 37° C. with the peptide(s) to be tested shuttle agents (0.5 to 5 μM) in 50 μL of fresh medium without serum (unless otherwise specified). The media in wells was removed and the cells were washed three times with freshly prepared phosphate buffered saline (PBS) previously warmed at 37° C. The cells were incubated with the cargo protein/shuttle agent mixture at 37° C. for the indicated time (e.g., 1, 5 or 60 min). After the incubation, the cells were quickly washed three times with freshly prepared PBS and/or heparin (0.5 mg/mL) previously warmed at 37° C. The washes with heparin were required for human THP-1 blood cells to avoid undesired cell membrane-bound protein background in subsequent analyses (microscopy and flow cytometry). The cells were finally incubated in 50 μL of fresh medium with serum at 37° C. before analysis.
One day before the transduction assay was performed, suspension cells in exponential growth phase were harvested and plated in a 96-well plate (20,000 cells per well). The cells were incubated overnight in appropriate growth media containing serum (see Example 1). The next day, in separate sterile 1.5-mL tubes, peptides were diluted in sterile distilled water at room temperature (if the cargo is or comprised a nucleic acid, nuclease-free water was used). Cargo protein(s) were then added to the peptides and, if necessary, sterile PBS or cell culture medium (serum-free) was added to obtain the desired concentrations of shuttle agent and cargo in a sufficient final volume to resuspend the cells (e.g., 10 to 100 μL per well in a 96-well plate). The shuttle agent/peptide was then immediately used for experiments. At least three controls were included for each experiment, including: (1) peptide alone (e.g., at highest concentration tested); (2) cargo alone; and (3) without any cargo or shuttle agent. The cells were centrifuged for 2 minutes at 400g, the medium was then removed and the cells were resuspended in PBS previously warmed at 37° C. The cells were centrifuged again 2 minutes at 400g, the PBS removed, and the cells were resuspended with the cargo protein/peptide mixture at 37° C. for the desired length of time. After that, 200 μL of complete medium was added directly on the cells. Cells were centrifuged for 2 minutes at 400g and the medium was removed. The pellet was resuspended and washed in 200 μL of PBS previously warmed at 37° C. After another centrifugation, the PBS was removed and the cells were resuspended in 50 μL of trypsin-EDTA solution for 2 min. 200 of complete medium was directly added and cells were centrifuged for 2 minutes at 400g. The medium was removed and the cells were resuspended in 200 μL of complete medium.
The cells incubated in 50 μL of fresh medium were directly observed by microscopy (Bright-field and fluorescence) at different power fields (4× to 40×). The cells were observed using a CoolSNAP-PRO™ camera (Series A02D874021) and images were acquired using the Image-Proplus™ software.
The fluorescence of GFP was quantified using flow cytometry (Accuri C6, Becton, Dickinson and Company (BD)).

HeLa cells [2] = experiment: FITC-labeled anti-tubulin antibody transduction assay (flow cytometry, cell viability, microscopy); details: antibody 0.5 μM; shuttle 50 μM; 10 seconds, Protocol B
Protocol: The delivery and microscopy protocols are described in Example 3.
HeLa cells were cultured and tested in the protein transduction assay described in Example 3.1. […] The cells were subjected to flow cytometry analysis as described in Example 3.3.

HeLa cells [3] = experiment: HOXB4-WT transduction, immuno-labelling and visualization by microscopy; assay type: cell-based, Human; details: HOXB4-WT 25 μM; shuttle 35 μM; 10 seconds, Protocol B
Protocol: Adherent cells were plated on a sterile glass strip at 1.5×10^5 cells per well in a 24-plate well and incubated overnight at 37° C. For fixation, cells were incubated in 500 μL per well of formaldehyde (3.7% v/v) for 15 minutes at room temperature, and washed 3 times for 5 minutes with PBS. For permeabilization, cells were incubated in 500 μL per well of Triton™ X-100 (0.2%) for 10 minutes at room temperature, and washed 3 times for 5 minutes with PBS. For blocking, cells were incubated in 500 μL per well of PBS containing 1% BSA (PBS/BSA) for 60 minutes at room temperature. Primary mouse monoclonal antibody was diluted PBS/BSA (1%). Cells were incubated in 30 μL of primary antibody overnight at 4° C. Cells were washed 3 times for 5 minutes with PBS. Secondary antibody was diluted in PBS/BSA (1%) and cells were incubated in 250 μL of secondary antibody 30 minutes at room temperature in the dark. Cells were washed 3 times for 5 minutes with PBS. […]
Recombinant HOXB4-WT transcription factor (25 μM; Example 14.1) was co-incubated with 35 μM of His-CM18-PTD4 and exposed to HeLa cells for 10 seconds using Protocol B as described in Example 9.1. […] The cells were visualized by bright field and fluorescence microscopy at 20× and 40× magnifications as described in Example 3.2, and sample results are shown in FIG. 45. […]

NIH3T3 cells = experiment: GFP-NLS transduction in different adherent and suspension cells (flow cytometry, Pos cells % and viability %); assay type: cell-based; details: Protocol B, 35 μM shuttle, 5 μM GFP-NLS, 10 seconds
Protocol: as §1, §2

Balb3T3 cells = experiment: as above; assay type: cell-based; details: Protocol B, 35 μM shuttle, 5 μM GFP-NLS, 10 seconds
Protocol: as §1, §2

[4] = HeLa, Protocol B, 35 μM shuttle, 5 μM GFP-NLS, 10 seconds
[5] = Table 10.3a, Protocol B, HeLa, shuttle 50 μM, GFP-NLS 5 μM, 10 seconds
[6] = THP-1, Protocol C, 5 μM shuttle, 5 μM GFP-NLS, 15 seconds

CC[C@H](C)[C@H](NC(=O)[C@H](CCCCN)NC(=O)[C@H](CCCCN)NC(=O)[C@H](Cc1ccccc1)NC(=O)[C@H](CC(C)C)NC(=O)[C@H](CCCCN)NC(=O)[C@H](Cc1c[nH]c2ccccc12)NC(=O)[C@H](CCCCN)NC(=O)[C@H](Cc1c[nH]cn1)NC(=O)[C@H](Cc1c[nH]cn1)NC(=O)[C@H](Cc1c[nH]cn1)NC(=O)[C@H](Cc1c[nH]cn1)NC(=O)[C@H](Cc1c[nH]cn1)NC(=O)[C@@H](N)Cc1c[nH]cn1)C(=O)NCC(=O)N[C@@H](C)C(=O)N[C@H](C(=O)N[C@@H](CC(C)C)C(=O)N[C@@H](CCCCN)C(=O)N[C@H](C(=O)N[C@@H](CC(C)C)C(=O)N[C@H](C(=O)N[C@H](C(=O)NCC(=O)N[C@@H](Cc1ccc(O)cc1)C(=O)N[C@@H](C)C(=O)N[C@@H](CCCNC(=N)N)C(=O)N[C@@H](C)C(=O)N[C@@H](C)C(=O)N[C@@H](C)C(=O)N[C@@H](CCCNC(=N)N)C(=O)N[C@@H](CCC(N)=O)C(=O)N[C@@H](C)C(=O)N[C@@H](CCCNC(=N)N)C(=O)N[C@@H](C)C(=O)O)[C@@H](C)O)[C@@H](C)O)C(C)C)C(C)C [His-CM18-PTD4]
Cell viability (%) (±St. Dev.; n = 3) (Myoblasts): 23.5 ± 1.1%
Mean % cells with GFP signal (±St. Dev.; n = 3) (Myoblasts): 25.6 ± 2.6%
Cell viability (%) (±St. Dev.; n = 3) (HEK 293T cells): 95.3 ± 1.2%
Mean % cells with GFP signal (±St. Dev.; n = 3) (HEK 293T cells): 55.3 ± 0.2%
Cell viability (%) (±St. Dev.; n = 3) (HeLa cells [1]; [4]): 94.6 ± 0.4%
Mean % cells with GFP signal (±St. Dev.; n = 3) (HeLa cells [1]; [4]): 72.3 ± 5.3%
Mean % cells with GFP signal (±St. Dev.; n = 3) (HeLa cells [1]; Table 9.1, Protocol A, HeLa, shuttle 10 μM, GFP-NLS 5 μM, 1 hour): 25.4 ± 3.6%
Mean % cells with GFP signal (±St. Dev.; n = 3) (HeLa cells [1]; Table 9.1, Protocol B, HeLa, shuttle 35 μM, GFP-NLS 5 μM, 10 seconds): 78.3 ± 5.3%
Mean % cells with GFP signal (±St. Dev.; n = 3) (HeLa cells [1]; Table 9.2, Protocol B, HeLa, shuttle 10 μM, GFP-NLS 5 μM, 10 seconds): 25.3 ± 3.6%
Mean % cells with GFP signal (±St. Dev.; n = 3) (HeLa cells [1]; Table 9.2, Protocol B, HeLa, shuttle 25 μM, GFP-NLS 5 μM, 10 seconds): 62.1 ± 6.1%
Mean % cells with GFP signal (±St. Dev.; n = 3) (HeLa cells [1]; Table 9.2, Protocol B, HeLa, shuttle 35 μM, GFP-NLS 5 μM, 10 seconds): 77.7 ± 7.8%
Mean % cells with GFP signal (±St. Dev.; n = 3) (HeLa cells [1]; Table 9.2, Protocol B, HeLa, shuttle 50 μM, GFP-NLS 5 μM, 10 seconds): 73.2 ± 5.2%
Mean % cells with GFP signal (±St. Dev.; n = 3) (HeLa cells [1]; Table 10.1, Protocol B, HeLa, shuttle 50 μM, GFP-NLS 5 μM, 10 seconds): 68 ± 2.2%
Mean % cells with GFP signal (±St. Dev.; n = 3) (HeLa cells [1]; Table 10.2, Protocol B, HeLa, shuttle 10 μM, GFP-NLS 5 μM, incubation 1 min.): 50.6 ± 3.5%
Mean % cells with GFP signal (±St. Dev.; n = 3) (HeLa cells [1]; Table 10.2, Protocol B, HeLa, shuttle 10 μM, GFP-NLS 5 μM, incubation 2 min.): 74 ± 3.3%
Mean % cells with GFP signal (±St. Dev.; n = 3) (HeLa cells [1]; Table 10.2, Protocol B, HeLa, shuttle 10 μM, GFP-NLS 5 μM, incubation 5 min.): 82.7 ± 5.0%
Relative fluorescence intensity (FL1-A) (n = 3) (HeLa cells [1]; HeLa, shuttle 10 μM, GFP-NLS 5 μM, incubation 1 min.): 524 151
Relative fluorescence intensity (FL1-A) (n = 3) (HeLa cells [1]; HeLa, shuttle 10 μM, GFP-NLS 5 μM, incubation 2 min.): 755 624
Relative fluorescence intensity (FL1-A) (n = 3) (HeLa cells [1]; HeLa, shuttle 10 μM, GFP-NLS 5 μM, incubation 5 min.): 173 930
Cell viability (%) (±St. Dev.; n = 3) (HeLa cells [1]; [5]): 92 ± 3.6%
Mean % cells with GFP signal (±St. Dev.; n = 3) (HeLa cells [1]; [5]): 68 ± 2.2%
Mean % cells with GFP signal (±St Dev.; n = 3) (HeLa cells [1]; Table 10.3e, Protocol B, HeLa, shuttle 20 μM, GFP-NLS 5 μM, 1 minute): 60.3 ± 3.2%
GFP-NLS transduction efficiency (HeLa cells [1]; peptide 20 μM, GFP-NLS 5 μM, 1 minute, Protocol B (Table 10.3e)): 60%
GFP-NLS delivery (microscopy, in words) (HeLa cells [1]; shuttle 35 μM, GFP-NLS 5 μM, 10 seconds, Protocol B): successfully transduced and delivered to the nucleus and/or the cytosol
time by which GFP-NLS is delivered to the nucleus (HeLa cells [1]; shuttle 50 μM, GFP-NLS 5 μM, exposed 10 seconds, Protocol B, microscopy): ≤ 2 min
viability (in vitro): 63.2 ± 4.07%
GFP-NLS intracellular delivery after repeated daily treatments (in words) (THP-1 cells; 0.5 or 0.8 μM shuttle, 150 min each day, in the presence of serum): result in intracellular delivery of GFP-NLS
Mean % cells with GFP signal (±St. Dev.; n = 3) (THP-1 cells; Protocol C, THP-1, 1 μM shuttle, 5 μM GFP-NLS, incubation 15 sec): 23.7 ± 0.2%
Mean % cells with GFP signal (±St. Dev.; n = 3) (THP-1 cells; Protocol C, THP-1, 1 μM shuttle, 5 μM GFP-NLS, incubation 30 sec): 53 ± 0.3%
Mean % cells with GFP signal (±St. Dev.; n = 3) (THP-1 cells; Protocol C, THP-1, 1 μM shuttle, 5 μM GFP-NLS, incubation 60 sec): 69.6 ± 4.2%
Mean % cells with GFP signal (±St. Dev.; n = 3) (THP-1 cells; Protocol C, THP-1, 1 μM shuttle, 5 μM GFP-NLS, incubation 120 sec): 89 ± 0.8%
Cell viability (%) (±St. Dev.; n = 3) (THP-1 cells; [6]): 64.1 ± 4.5%
Mean % cells with GFP signal (±St. Dev.; n = 3) (THP-1 cells; [6]): 64.1 ± 1.6%
Mean % cells with GFP signal (±St. Dev.; n = 3) (THP-1 cells; THP-1, serum, daily 150 min, 0.5 μM shuttle, 5 μM GFP-NLS, 1 day exposure): 12.1 ± 1.5%
Mean % cells with GFP signal (±St. Dev.; n = 3) (THP-1 cells; THP-1, serum, daily 150 min, 0.5 μM shuttle, 5 μM GFP-NLS, 3 days exposure): 73.4 ± 1.1%
Mean % cells with GFP signal (±St. Dev.; n = 3) (THP-1 cells; THP-1, serum, daily 150 min, 0.8 μM shuttle, 1 μM GFP-NLS, 1 day exposure): 1.6 ± 0.2%
Mean % cells with GFP signal (±St. Dev.; n = 3) (THP-1 cells; THP-1, serum, daily 150 min, 0.8 μM shuttle, 1 μM GFP-NLS, 3 days exposure): 6.5 ± 0.9%
Mean % cells with GFP signal (±St. Dev.; n = 3) (THP-1 cells; THP-1, serum, daily 150 min, 0.8 μM shuttle, 2.5 μM GFP-NLS, 1 day exposure): 12.2 ± 0.9%
Mean % cells with GFP signal (±St. Dev.; n = 3) (THP-1 cells; THP-1, serum, daily 150 min, 0.8 μM shuttle, 2.5 μM GFP-NLS, 3 days exposure): 62.4 ± 3.5%
Mean % cells with GFP signal (±St. Dev.; n = 3) (THP-1 cells; Table 9.3, Protocol A, THP-1, shuttle 1 μM, GFP-NLS 5 μM, 1 hour): 14.2 ± 2.2%
Mean % cells with GFP signal (±St. Dev.; n = 3) (THP-1 cells; Table 9.3, Protocol C, THP-1, shuttle 0.5 μM, GFP-NLS 5 μM, 15 seconds): 34.9 ± 3.8%
Mean % cells with GFP signal (±St. Dev.; n = 3) (THP-1 cells; Table 9.3, Protocol C, THP-1, shuttle 5 μM, GFP-NLS 5 μM, 15 seconds): 64.1 ± 1.6%
GFP-NLS intracellular delivery (microscopy / FACS, in words) (THP-1 cells; shuttle 5 μM, GFP-NLS 5 μM, 15 seconds, Protocol C): successfully delivered intracellularly
antibody delivery (microscopy, in words) (HeLa cells [2]): successfully transduced and delivered to the nucleus and/or the cytosol
HOXB4-WT nuclear delivery (immuno-labelling) (HeLa cells [3]): HOXB4-WT was successfully delivered to the nucleus after 30 min
Cell viability (%) (±St. Dev.; n = 3) (NIH3T3 cells): 3.3 ± 5.4%
Mean % cells with GFP signal (±St. Dev.; n = 3) (NIH3T3 cells): 35.4 ± 3.9%
Cell viability (%) (±St. Dev.; n = 3) (Balb3T3 cells): 98.4 ± 0.6%
Mean % cells with GFP signal (±St. Dev.; n = 3) (Balb3T3 cells): 40.2 ± 3.1%
